Among the data in patent publication US20080311589A1, “METHOD OF HIGH-THROUGHPUT SCREENING OF MOLECULES AND COMPOUNDS FOR THEIR EFFECTS ON BIOLOGICAL AND CHEMICAL PROCESSES” (priority 1999, published 2008) are BrdU incorporation values, retold here.

The test has as its system Mv1Lu mink lung epithelial cells. Nature of the test: 1536 well BrdU cytoblot. The test is classed as cell-based. The conditions noted are these: 1536-well plate, approximately 500 cells per well. On the procedure: FIG. 3. BrdU incorporation can be efficiently detected with a cytoblot in 1536 well plates in 2 μL droplets. 500 Mv1Lu mink lung epithelial cells were seeded in each well of a white, opaque 1536 well plate (Corning/Costar, Corning, N.Y.). The cells were seeded with or without […] TGF-β in 2 μL of 1% mink medium and allowed to incubate at 37° C. with 5% CO2. After 24 hours, 0.5 μL of 50 μM BrdU in 1% mink medium was added to the indicated wells, for a final concentration of 10 μM BrdU. The plate were incubated at 37° C. with 5% CO2 for an additional 12 hours and then an anti-BrdU cytoblot protocol was performed (see protocols). Wells are magnified as indicated.
Thus, the application of the cytoblot assay to plates containing a higher density of wells was tested. Mink lung cells were seeded into opaque, white 1536-well plates with each well containing approximately 500 cells. Next, the ability of TGF-β to prevent BrdU incorporation was assayed. […] The following protocol provides experimental detail.
The reagents to be tested were prepared in 1536 well plates (Greiner America, Lake Mary, Fla.), with one or more test compounds per well. If the test compounds were attached on solid support (beads), then the beads were distributed into individual wells of 1536 well white plate in acetonitrile. […]

As for “TGF-β: anti-mitogen transforming growth factor β, multifunctional polypeptide signaling factor”, the BrdU incorporation entry is listed as “effectively prevents BrdU incorporation”.
